PubChem BioAssay AID1845206 (Molecular Pharmacology Branch, DTP, NCI, 2023)

Tested on: NCI-H1618 multicellular tumor spheroid viability
Test: Anticancer human tumor NCI-H1618 cell line growth inhibition;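 also: spheroids exposed to agents for 7 days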
Details: for IC50: curve of first compound; for viability, T/C: stronger effect = lower value
How it was run: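 Complex tumor spheroids combined malignant cells with endothelial cells and mesenchymal stem cells. DNA-damaging drugs and DNA repair inhibitors were tested alone and in combination, at half-log dilutions down from clinical Cmax (top 10 microM if Cmax unknown), 0.25% DMSO final.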

SMILES: CC(C)n1c(=O)n(C)c2cnc3cc(F)c(-c4ccc(OCCCN5CCCCC5)nc4)cc3c21 + CC[C@@]1(O)C(=O)OCc2c1cc1n(c2=O)Cc2cc3c(CN(C)C)c(O)ccc3nc2-1
- IC50 (second compound 0.003 µM): > 10 µM
- IC50 (second compound 0.00949 µM): < 0.0316 µM
- IC50 (second compound 0.03 µM): < 0.0316 µM
- IC50 (second compound 0.0949 µM): < 0.0316 µM
- IC50 (second compound 0.3 µM): < 0.0316 µM
- viability, T/C (second compound 0.003 µM, first compound 0.0316 µM): 56.8%
- viability, T/C (second compound 0.003 µM, first compound 0.1 µM): 51.4%
- viability, T/C (second compound 0.003 µM, first compound 0.316 µM): 51.9%
- viability, T/C (second compound 0.003 µM, first compound 1 µM): 66.7%
- viability, T/C (second compound 0.003 µM, first compound 3.16 µM): 72.7%
- viability, T/C (second compound 0.003 µM, first compound 10 µM): 38.1%
- viability, T/C (second compound 0.00949 µM, first compound 0.0316 µM): 7.93%
- viability, T/C (second compound 0.00949 µM, first compound 0.1 µM): 4.31%
- viability, T/C (second compound 0.00949 µM, first compound 0.316 µM): 8.14%
- viability, T/C (second compound 0.00949 µM, first compound 1 µM): 10.5%
- viability, T/C (second compound 0.00949 µM, first compound 3.16 µM): 12.8%
- viability, T/C (second compound 0.00949 µM, first compound 10 µM): 14.4%
- viability, T/C (second compound 0.03 µM, first compound 0.0316 µM): 4.99%
- viability, T/C (second compound 0.03 µM, first compound 0.1 µM): 4.95%
- viability, T/C (second compound 0.03 µM, first compound 0.316 µM): 4.02%
- viability, T/C (second compound 0.03 µM, first compound 1 µM): 2.3%
- viability, T/C (second compound 0.03 µM, first compound 3.16 µM): 2.79%
- viability, T/C (second compound 0.03 µM, first compound 10 µM): 1.82%
- viability, T/C (second compound 0.0949 µM, first compound 0.0316 µM): 4.98%
- viability, T/C (second compound 0.0949 µM, first compound 0.1 µM): 3.54%
- viability, T/C (second compound 0.0949 µM, first compound 0.316 µM): 8.33%
- viability, T/C (second compound 0.0949 µM, first compound 1 µM): 4.32%
- viability, T/C (second compound 0.0949 µM, first compound 3.16 µM): 7.17%
- viability, T/C (second compound 0.0949 µM, first compound 10 µM): 4.95%
- viability, T/C (second compound 0.3 µM, first compound 0.0316 µM): 4.62%
- viability, T/C (second compound 0.3 µM, first compound 0.1 µM): 4.88%
- viability, T/C (second compound 0.3 µM, first compound 0.316 µM): 4.27%
- viability, T/C (second compound 0.3 µM, first compound 1 µM): 4.09%
- viability, T/C (second compound 0.3 µM, first compound 3.16 µM): 5.96%
- viability, T/C (second compound 0.3 µM, first compound 10 µM): 6.01%
